Series [1] concerns HIV-1RF. Conditions: in vitro; cited from earlier work.
In series [2] the test system is panel of human cancer cell lines. The note with it: mean over a panel of human cancer cell lines; cited from earlier work.
Series [3] concerns HT29. The series can be described thus: SRB colorimetric cytotoxicity assay, HT29. Format: cell-based, human. Conditions: for GI50: 50% cell growth inhibition; for CC50: 50% net cell killing, read-out: LC50 (the source's name); for TGI: total cell growth inhibition. The source says: (§1) The aim of this assay is to evaluate the in vitro cytostatic (ability to delay or arrest tumor cell growth) or cytotoxic (ability to kill tumor cells) activity of the samples being tested.
(§2) A colorimetric assay, using sulforhodamine B (SRB) reaction has been adapted to provide a quantitative measurement of cell growth and viability (following the technique described by Skehan et al. J. Natl. Cancer Inst. 1990, 82, 1107-1112).
(§3) This form of assay employs SBS-standard 96-well cell culture microplates (Faircloth et al. Methods in Cell Science, 1988, 11(4), 201-205; Mosmann et al, Journal of Immunological Methods, 1983, 65(1-2), 55-63). All the cell lines used in this study were obtained from the American Type Culture Collection (ATCC) and derive from different types of human cancer.
(§4) Cells were maintained in Dulbecco's Modified Eagle Medium (DMEM) supplemented with 10% Fetal Bovine Serum (FBS), 2 mM L-glutamine, 100 U/mL penicillin and 100 U/mL streptomycin at 37° C., 5% CO2 and 98% humidity. For the experiments, cells were harvested from subconfluent cultures using trypsinization and resuspended in fresh medium before counting and plating.
(§5) Cells were seeded in 96 well microtiter plates, at 5×10^3 cells per well in aliquots of 150 μL, and allowed to attach to the plate surface for 18 hours (overnight) in drug free medium. After that, one control (untreated) plate of each cell line was fixed (as described below) and used for time zero reference value. Culture plates were then treated with test compounds (50 μL aliquots of 4× stock solutions in complete culture medium plus 4% DMSO) using ten serial dilutions (concentrations ranging from 10 to 0.00262 μg/mL) and triplicate cultures (1% final concentration of DMSO). After 72 hours treatment, the antitumor effect was measured by using the SRB methodology: Briefly, cells were washed twice with PBS, fixed for 15 min in 1% glutaraldehyde solution at room temperature, rinsed twice in PBS, and stained in 0.4% SRB solution for 30 min at room temperature. Cells were then rinsed several times with 1% acetic acid solution and air-dried at room temperature. SRB was then extracted in 10 mM trizma base solution and the absorbance measured in an automated spectrophotometric plate reader at 490 nm. Effects on cell growth and survival were estimated by applying the NCI algorithm (Boyd M R and Paull K D. Drug Dev. Res. 1995, 34, 91-104).
(§6) Using the mean±SD of triplicate cultures, a dose-response curve was automatically generated using nonlinear regression analysis. Three reference parameters were calculated (NCI algorithm) by automatic interpolation: GI50=compound concentration that produces 50% cell growth inhibition, as compared to control cultures; TGI=total cell growth inhibition (cytostatic effect), as compared to control cultures, and LC50=compound concentration that produces 50% net cell killing (cytotoxic effect).

The subject of series [4] is MDA-MB-231. The series can be described thus: SRB colorimetric cytotoxicity assay, MDA-MB-231. Format: cell-based, human. Conditions: MDA-MB-231, 72 hours treatment; for GI50: 50% cell growth inhibition; for TGI: total cell growth inhibition.
Excerpt: as §1, §2, §3, §4, §5, §6

In series [5] the test system is A549. The series can be described thus: SRB colorimetric cytotoxicity assay, A549. The class given is cell-based, human. The note with it: A549, 72 hours treatment; for GI50: 50% cell growth inhibition; for CC50: 50% net cell killing, read-out: LC50 (the source's name); for TGI: total cell growth inhibition.
Excerpt: as §1, §2, §3, §4, §5, §6

Series [6] relates to HIV-1RF. The note with it: human T-cell line CEM-SS infected with HIV-1RF, 6 day incubation; read-out: EC50, inhibition of the cytopathic effect of HIV-1 infection; cited from earlier work.
Series [7] deals with HIV-1. The note with it: cell-based XTT assay; read-out: IC50, cytoprotective activity against HIV-1 infection; cited from earlier work. On the technique in general: Tetrazolium assays rely on reduction of a dye to a coloured formazan, in cell work by metabolically active cells.
Setting [8] is: Homo sapiens, HT-29, HT29, 72 hours treatment.

Read-outs that look alike come from different tables or passages of the source. Numbered stars: 1 amine (or outer) side, 2 acyl side, 3 side chain; on linkers, the order of the positions; unused ones are H or OH. Bridge positions count the residues as written; N and C are the ends. Square brackets hold non-standard residues; d marks the D form. Peptide text beside a SMILES is read from it. * marks the point of attachment. ξ: configuration not given here. dNle(3R-OH,4R,5-Me2) = CC(C)[C@@H](C)[C@@H](O[*:3])[C@@H](N[*:1])C(=O)[*:2]; γ4hArg(2R,3R-(OH)2) = N=C(N)NCCC[C@H](N[*:1])[C@@H](O)[C@@H](O)C(=O)[*:2]; Heptanoyl(3R-OH,2R,4R,6-Me3) = CC(C)C[C@@H](C)[C@@H](O)[C@@H](C)C(=O)*; X5 = CO[C@H](c1ccc(O)cc1)C(N[*:1])C(=O)C[C@H](CC(N)=O)C(=O)[*:2]; Gln(3S,4R-Me2) = C[C@H]([C@H](N)C(=O)O)[C@@H](C)C(N)=O; X1 = NC(=O)CC[C@H](N[*:1])[C@@H](O)[C@@H](O)C(=O)[*:2]; X7 = O=C(O)CC[C@H](N[*:1])[C@@H](O)[C@@H](O)C(=O)[*:2]; ξThr(3R)(O-yl) = C[C@@H](O[*:3])C(N[*:1])C(=O)[*:2]; X6 = CC[C@@H](C)C[C@@H](C)[C@@H](O)[C@@H](C)C(=O)*; X4 = C[C@H](C(N[*:1])C(=O)[*:2])[C@@H](C)C(N)=O; Asn(3S-OEt) = CCO[C@H](C(N)=O)[C@H](N)C(=O)O; dAsp(3S-OH) = N[C@@H](C(=O)O)[C@H](O)C(=O)O; ξGln(3,4-Me2) = CC(C(N)=O)C(C)C(N)C(=O)O; X3 = CC(O)C(N[*:1])C(O)C(O)C(=O)[*:2]; ξAsn(3ξ-OMe) = COC(C(N)=O)C(N)C(=O)O; d(aThr) = C[C@@H](O)[C@@H](N)C(=O)O; X2 = CC(C)CC(C)CC(C)C(O)C(C)C(=O)*; NMeQ = CN[CH](CCC(N)=O)C(=O)O; ξNle(4ξ-Me) = CCC(C)CC(N)C(=O)O; ξThr(3R) = C[C@@H](O)C(N)C(=O)O; dOrn = NCCC[C@@H](N)C(=O)O; Pip = O=C(O)[CH]1CCCCN1; Orn = NCCC[CH](N)C(=O)O; ξL = CC(C)CC(N)C(=O)O

The GI50 is the concentration at which growth is held to half of that of the control. Read a high GI50 as less potent growth inhibition. One may read the EC50 as the midpoint of the concentration-response curve. The IC50 is the point on the concentration scale where inhibition reaches its midpoint.

In the case of papuamide B, in series [1], the “EC50, inhibition of infection of human T-lymphoblastoid cells by HIV-1RF” value is “approximately 4 ng/mL”.

Take papuamide A: the “EC50, inhibition of infection of human T-lymphoblastoid cells by HIV-1RF” value in series [1] is given as “approximately 4 ng/mL”. In series [2], the “mean IC50, cytotoxicity” value was 0.075 µg/mL.

In the case of `CCO[C@H](C(N)=O)[C@@H]1NC(=O)[C@H](CCC(N)=O)N(C)C(=O)[C@H](CC(C)C)NC(=O)[C@@H](CCCCN)NC(=O)[C@@H]([C@@H](C)O)NC(=O)[C@H](NC(=O)[C@@H](NC(=O)[C@H](O)[C@H](O)[C@H](CCC(N)=O)NC(=O)[C@H](NC(=O)[C@H](C)[C@H](O)[C@H](C)CC(C)C)[C@H](O)C(=O)O)[C@@H](C)[C@@H](C)C(N)=O)[C@@H]([C@H](C)C(C)C)OC(=O)[C@@H]2CCCCN2C(=O)[C@@H](CC(=O)O)NC1=O` [Pipecolidepsin B] ({Heptanoyl(3R-OH,2R,4R,6-Me3)}-[dAsp(3S-OH)][X1][Gln(3S,4R-Me2)][dNle(3R-OH,4R,5-Me2)][d(aThr)][dK]L[NMeQ][Asn(3S-OEt)][dD][Pip]; ester 4-C), in series [3] (HT29, 72 hours treatment), the concentration for 50% growth inhibition (GI50) is 14.4 nM, the CC50 amounted to 65.8 nM and the TGI came out at 2.69E−08 Molar. Besides, in series [4], the GI50 was determined as 23.3 nM, the LC50 (50% net cell killing) amounted to 209 nM and the TGI is 6.58E−08 Molar. Further, in series [5], the GI50 was determined as 35.3 nM, the CC50 came out at 353 nM and the TGI is recorded as 1.08E−07 Molar.

With `CCO[C@H](C(N)=O)[C@@H]1NC(=O)[C@H](CCC(N)=O)N(C)C(=O)[C@H](CC(C)C)NC(=O)[C@@H](CCCCN)NC(=O)[C@@H]([C@@H](C)O)NC(=O)[C@H](NC(=O)[C@@H](NC(=O)[C@H](O)[C@H](O)[C@H](CCC(N)=O)NC(=O)[C@@H](CC(=O)O)NC(=O)[C@H](C)[C@H](O)[C@H](C)CC(C)C)[C@@H](C)[C@@H](C)C(N)=O)[C@@H]([C@H](C)C(C)C)OC(=O)[C@@H]2CCCCN2C(=O)[C@@H](CC(=O)O)NC1=O` [Pipecolidepsin A] ({Heptanoyl(3R-OH,2R,4R,6-Me3)}-[dD][X1][Gln(3S,4R-Me2)][dNle(3R-OH,4R,5-Me2)][d(aThr)][dK]L[NMeQ][Asn(3S-OEt)][dD][Pip]; ester 4-C), in series [3] (HT29, 72 hours treatment), the GI50 amounted to 1150 nM, the CC50 was 1570 nM and the TGI came out at 1.33E−06 Molar. In series [4], the GI50 turned out to be 725 nM, the LC50 (50% net cell killing) stood at 1750 nM and the TGI came to 1.15E−06 Molar. Moreover, in series [5], the concentration for 50% growth inhibition (GI50) amounted to 604 nM, the CC50 came out at 1390 nM and the TGI was 9.06E−07 Molar.

With `CO[C@H](c1ccc(O)cc1)C1NC(=O)[C@H](CCC(N)=O)N(C)C(=O)C(CC(C)C)NC(=O)[C@@H](CCCNC(=N)N)NC(=O)C([C@@H](C)O)NC(=O)C(NC(=O)C(NC(=O)[C@H](O)[C@H](O)[C@H](CCCNC(=N)N)NC(=O)[C@H](CC(N)=O)NC(=O)[C@H](C)[C@H](O)[C@H](C)CC(C)C)[C@@H](C)[C@@H](C)C(N)=O)[C@@H](C)OC(=O)[C@@H]2CCCCN2C(=O)[C@@H](CC(N)=O)CC1=O` (stereo partly drawn) [neamphamide A] ({Heptanoyl(3R-OH,2R,4R,6-Me3)}-N[γ4hArg(2R,3R-(OH)2)][X4][ξThr(3R)(O-yl)][ξThr(3R)][dR][ξL][NMeQ][X5][Pip]; ester 4-C), in series [6], the 50% effective concentration (EC50) is 28 nM.

As for `CC[C@@H](C)C[C@@H](C)[C@@H](O)[C@@H](C)C(=O)N[C@H](CCCN)C(=O)N[C@@H](CCC(=O)O)[C@@H](O)[C@@H](O)C(=O)N[C@H](C(=O)N[C@H]1C(=O)N[C@H](CO)C(=O)N[C@H](CCCN)C(=O)N[C@@H](CC(C)C)C(=O)N(C)[C@@H](CCC(N)=O)C(=O)N[C@@H]([C@@H](C)OC)C(=O)N[C@H](CC(=O)O)C(=O)N2CCCC[C@H]2C(=O)O[C@@H]1[C@H](C)C(C)C)[C@@H](C)[C@@H](C)C(N)=O` [homophymine A] (X6-[dOrn][X7][Gln(3S,4R-Me2)][dNle(3R-OH,4R,5-Me2)][dS][dOrn]L[NMeQ]T(Me)[dD][Pip]; ester 4-C), the concentration for half-maximal inhibition (IC50) in series [7] is 75 nM.

On to `CCC(C)CC1NC(=O)C(CCCN)NC(=O)C(C(C)O)NC(=O)C(NC(=O)C(NC(=O)C(O)C(O)C(NC(=O)CNC(=O)C(C)C(O)C(C)CC(C)CC(C)C)C(C)O)C(C)C(C)C(N)=O)C(C)OC(=O)C2CCCCN2C(=O)C(CC(N)=O)NC(=O)C(C(OC)C(N)=O)NC(=O)C(CCC(N)=O)N(C)C1=O` (centres unmarked) [Pipecolidepsin C] (X2-G[X3][ξGln(3,4-Me2)]TT[Orn][ξNle(4ξ-Me)][NMeQ][ξAsn(3ξ-OMe)]N[Pip]; ester 4-C; configuration not given here), for which the TGI in series [3] (HT29, 72 hours treatment) was found to be 8.43E−07 Molar; in series [4] it was 6.48E−07 Molar; in series [5], 5.25E−07 Molar. Further, the GI50 in series [3] (setting [8]) came out at 648 nM; in series [4] (Homo sapiens), 480 nM; in series [5] (Homo sapiens), 428 nM. In addition, the CC50 in series [3] (setting [8]) was 1040 nM; in series [5] (Homo sapiens), 648 nM. Moreover, in series [4] (Homo sapiens), the LC50 (50% net cell killing) was found to be 907 nM.

The record behind these values is patent US20110237520A1, “Anticancer Compounds” (priority 2008, published 2011).
